From patent US20100190688A1, “Tetrapeptide analogs” (priority 2004, published 2010)
Where a name gives a salt, the structure may show the parent alone.

How the values were obtained:
[1] = target: T1, BIR3-mediated Caspase-9 inhibition (UniProt Q9R0I6); assay: Caspase-9 rescue assay (relief of BIR3-mediated Caspase-9 inhibition); format: biochemical, human Caspase-9; Rat or Chicken BIR3; conditions: average EC50, substrate Ac-LEHD-amc, pH 6.5
T1 construct: Nothing is printed for this assay
Description: Additionally the compounds and compositions can be evaluated for their ability to achieve relief of BIR3-mediated Caspase-9 inhibition by measuring Caspase-9 reactivation. The fluorogenic substrate Ac-LEHD-7-amido-4-methylcoumarin is used in these methods. EC50 values of tested BIR3 inhibitors or Caspase-9 rescuers is calculated from the percentage of Caspase-9 reactivation in the mixtures containing serially diluted concentrations of tested compound. Typically, 10-point curves are generated for such EC50 determination.
Relief of BIR3-mediated Caspase-9 inhibition by BIR3 inhibitors was assayed by measuring Caspase-9 reactivation using the fluorogenic substrate Ac-LEHD-7-amido-4-methylcoumarin. A truncated form of human Caspase-9 that lacks the N-terminal Caspase recruitment domain (EPro-Caspase-9 or p35/p12) was used in the assay. This form of the enzyme has the full catalytic activity and the same substrate specificity as the full-length protein in the Apaf-1/Cytochrome C/dATP/Caspase-9 reconstituted system. Rat or Chicken BIR3 was used in this assay. […] This mixture was incubated for 40 min to allow equilibration at 25° C., and the assay progression was subsequently followed by monitoring the formation of fluorescent 7-amido-4-methylcoumarin over time at 460 nm using an excitation wavelength of 360 nm. […] EC50 values of tested BIR3 inhibitors or Caspase-9 rescuers were calculated from the percentage of Caspase-9 reactivation in the mixtures containing serially diluted concentrations of tested compound.

[2] = target: BIR3 domain of rat XIAP (Rattus norvegicus, UniProt Q9R0I6); assay: Fluorescence polarization assay, binding to BIR3 from rat XIAP
Chain of BIR3 domain of rat XIAP (Q9R0I6 241-355): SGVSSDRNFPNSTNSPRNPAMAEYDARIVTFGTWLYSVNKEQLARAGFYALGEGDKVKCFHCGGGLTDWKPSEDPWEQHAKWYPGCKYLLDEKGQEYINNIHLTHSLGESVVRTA
Description: In fluorescence polarization assays a fluorescent probe is used. The binding affinity of compounds to BIR3 is measured by competitive displacement of a fluorescent probe using fluorescence polarization anisotropy. […] In other embodiments, the probe used is 6-(6-Hydroxy-3-oxo-3H-xanthen-9-yl)-N-(5-(2-methylamino-propionylamino)-6-oxo-6-[4-(1,2,3,4-tetrahydro-naphthalen-1-ylcarbamoyl)-thiazolidin-3-yl]-hexyl)-isophthalamic acid.
The binding affinity of compounds provided herein for rat BIR3 was measured by competitive displacement of a fluorescent probe using fluorescence polarization anisotropy. […] Control conditions were set up on each plate and include free probe 1 alone (5 nM), fully bound probe (5 μM BIR3+5 nM probe 1) and binding buffer blank. The-EC50 of binding was computed from a 4-parameter fit of the measured anisotropies using the SoftMax Pro 4.6 software package (Molecular Dynamics, Sunnyvale, Calif.).
Alternatively, probe 1 was substituted with probe 2: 6-(6-Hydroxy-3-oxo-3H-xanthen-9-yl)-N-{5-(2-methylamino-propionylamino)-6-oxo-6-[4-(1,2,3,4-tetrahydro-naphthalen-1-ylcarbamoyl)-thiazolidin-3-yl]-hexyl}-isophthalamic acid, for rat BIR3 and the concentrations of assay components changed. […] Controls were adjusted accordingly.

EC50 [1]	EC50 [2]	SMILES
< 1000 nM	< 1000 nM	CN[C@@H](C)C(=O)N[C@H]1CCCC2CC[C@@H](C(=O)N[C@@H]3CCCc4ccccc43)N2C1=O (stereo partly drawn) [6-(2-Methylamino-propionylamino)-5-oxo-octahydro-pyrrolo[1,2-a]azepine-3-carboxylic acid (1,2,3,4-tetrahydro-naphthalen-1-yl)-amide]
< 1000 nM	< 1000 nM	CNC(C)C(=O)NC(C(=O)N1CS(=O)(=O)CC1C(=O)NC1CCCc2ccccc21)C(C)C (stereo not drawn) [3-[3-Methyl-2-(2-methylamino-propionylamino)-butyryl]-1,1-dioxo-1l6-thiazolidine-4-carboxylic acid (1,2,3,4-tetrahydro-naphthalen-1-yl)-amide]
1000 to 10000 nM	< 1000 nM	CNC(C)C(=O)NC(C(=O)N1CCCC1C(=O)NN(Cc1ccccc1)Cc1ccccc1)C(C)(C)C (stereo not drawn) [N-{1-[2-(N′,N′-Dibenzyl-hydrazinocarbonyl)-pyrrolidine-1-carbonyl]-2,2-dimethyl-propyl}-2-methylamino-propionamide]
1000 to 10000 nM	< 1000 nM	CNC(C)C(=O)NC(C(=O)N1CCSCC1C(=O)NC1CCCc2ccccc21)C(C)C (stereo not drawn) [4-[3-Methyl-2-(2-methylamino-propionylamino)-butyryl]-thiomorpholine-3-carboxylic acid (1,2,3,4-tetrahydro-naphthalen-1-yl)-amide]
< 1000 nM	< 1000 nM	CNC(C)C(=O)NC(C(=O)N1CCSC1C(=O)NC1CCCc2ccccc21)C(C)C (stereo not drawn) [3-[3-Methyl-2-(2-methylamino-propionylamino)-butyryl]-thiazolidine-2-carboxylic acid (1,2,3,4-tetrahydro-naphthalen-1-yl)-amide]
< 1000 nM	< 1000 nM	CNC(C)C(=O)NC(C(=O)NC(CCCCNS(=O)(=O)Cc1ccccc1)C(=O)NC1CCCc2ccccc21)C(C)C (stereo not drawn) [2-[3-Methyl-2-(2-methylamino-propionylamino]-butyrylamino]-6-phenylmethanesulfonylamino-hexanoic acid (1,2,3,4-tetrahydro-naphthalen-1-yl)-amide]
> 10000 nM	1000 to 10000 nM	CNC(C)C(=O)NC(C(=O)NC(Cc1ccccc1)C(=O)NC1CCCc2ccccc21)C(C)C (stereo not drawn) [3-Methyl-2-(2-methylamino-propionylamino)-N-[2-phenyl-1-(1,2,3,4-tetrahydro-naphthalen-1-ylcarbamoyl)-ethyl]-butyramide]
> 10000 nM	1000 to 10000 nM	CNC(C)C(=O)NC(C(=O)N(CCc1ccccc1)CC(=O)NC1CCCc2ccccc21)C(C)(C)C (stereo not drawn) [3,3-Dimethyl-2-(2-methylamino-propionylamino)-N-phenethyl-N-[(1,2,3,4-tetrahydro-naphthalen-1-ylcarbamoyl)-methyl]-butyramide TFA salt]
> 10000 nM	1000 to 10000 nM	CNC(C)C(=O)NC(C(=O)N1CCCC1C(=O)NCCC(c1ccccc1)c1ccccc1)C(C)(C)C (stereo not drawn) [1-[3,3-Dimethyl-2-(2-methylamino-propionylamino)-butyryl]-pyrrolidine-2-carboxylic acid (3,3-diphenyl-propyl)-amide]
